This is an account of results in patent publication US11052092B2, “N-{[2-(piperidin-1-yl)phenyl](phenyl)methyl}-2-(3-oxo-3,4-dihydro-2H-1,4-benzoxazin-7-yl)acetamide derivatives and related compounds as ROR-gamma modulators for treating autoimmune diseases” (Genfit, priority 2017, dated 2021).

Each structure is given as a SMILES string.

One series has as its target T1, human RORγt (Homo sapiens, UniProt P51449).
T1 construct: the full-length cDNA of human RORγt; expressed in transfected cells; host or cells: COS-7 (monkey kidney)
T1 sequence (P51449 1-497 isoform P51449-2): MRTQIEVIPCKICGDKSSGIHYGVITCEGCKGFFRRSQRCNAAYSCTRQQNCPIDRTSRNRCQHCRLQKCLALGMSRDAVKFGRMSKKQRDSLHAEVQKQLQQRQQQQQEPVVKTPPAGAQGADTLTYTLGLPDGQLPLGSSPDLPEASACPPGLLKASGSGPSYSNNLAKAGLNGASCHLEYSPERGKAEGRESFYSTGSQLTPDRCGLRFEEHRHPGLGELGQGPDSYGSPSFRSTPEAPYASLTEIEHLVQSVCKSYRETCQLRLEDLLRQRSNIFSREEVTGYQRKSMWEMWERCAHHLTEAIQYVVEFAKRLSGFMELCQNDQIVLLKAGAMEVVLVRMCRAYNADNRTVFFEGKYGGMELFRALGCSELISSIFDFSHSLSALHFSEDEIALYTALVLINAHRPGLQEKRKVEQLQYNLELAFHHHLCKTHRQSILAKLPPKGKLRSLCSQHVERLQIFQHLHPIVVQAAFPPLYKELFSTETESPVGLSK
Kind of series: RORE Luciferase/RORγt transactivation assay. It is filed as cell-based. Conditions: COS-7 cells transfected with human IL-17 promoter luciferase reporter and RORγt plasmid; 20 h with compound; read-out: IC50, RORγt activity inhibition. A digest of the protocol: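 Transactivation read-out: luminescence (Steady-Glo, 30 min at room temperature) from COS-7 cells carrying a RORγt expression plasmid plus a 4.3 kb IL-17 promoter luciferase reporter. Compound exposure was in serum-free DMEM with 0.3% DMSO final. Reported values are IC50 (μM) and Emax (%).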
In general terms: Reporter assays use an easily measured gene product as a stand-in for the process of interest.

The subject of series [1] is Murine EL-4 lymphoma cell line overexpressing human RORγt. Kind of series: IL-17 secretion from EL4 murine lymphoma. The class given is cell-based. Conditions: Mus musculus; human RORγt-transfected EL4 cells, PMA (10 ng/mL) and ionomycin (1 μM), 24 h; read-out: IC50, IL-17 secretion inhibition. In short, it runs like this: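 EL-4 cells electroporated with hRORγt plasmid, seeded at 150000 cells/well and pretreated with compound for 24 h, then stimulated with PMA (10 ng/mL) plus ionomycin (1 μM final) with compound for a further 24 h at 37 °C. IL-17 in supernatant measured by HTRF or ELISA.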

For series [2], the target named is T2, RORγt ligand-binding domain (RORγt-LBD) (Homo sapiens, UniProt P51449).
T2 construct: 20 nM recombinantly expressed RORγ-LBD fused to GST
T2 sequence (P51449 269-508 limits assumed): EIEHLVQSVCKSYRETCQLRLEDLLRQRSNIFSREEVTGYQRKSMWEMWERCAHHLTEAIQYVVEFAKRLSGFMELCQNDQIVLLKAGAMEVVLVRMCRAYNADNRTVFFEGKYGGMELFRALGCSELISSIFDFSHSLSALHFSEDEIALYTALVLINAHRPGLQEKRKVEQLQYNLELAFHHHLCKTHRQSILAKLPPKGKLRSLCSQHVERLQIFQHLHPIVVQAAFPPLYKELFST
The series is described as follows: Time-resolved FRET (TR-FRET) RORγt coactivator assay. Conditions: GST-RORγ-LBD, biotinylated RIP140 peptide, 2 hours at room temperature. A digest of the protocol:
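GST-tagged RORγt-LBD (20 nM) with 30 nM biotinylated RIP140-derived peptide, streptavidin-terbium and d2 anti-GST in CHAPS buffer (1 mM DTT, 2 mM EDTA, 0.1% BSA), 1% DMSO. Compounds at 0.3 nM–30 μM final, equilibrated 2 h, room temperature, dark. Coactivator displacement lowers the TR-FRET signal; IC50 (μM) and Emax (%) reported.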

For another series, the system named is multiple sclerosis model. Conditions: administered by injection; cited from earlier work.
For the next series, the system named is psoriasis model. Conditions: administered by injection; cited from earlier work.
For series [3], the system named is patients with moderate to severe psoriasis. Conditions: cited from earlier work.

In the case of `Cc1ccc(C(NC(=O)Cc2ccc3[nH]c(C)nc3c2)c2ccccc2)c(Br)c1` (stereo not shown) [Cpd. 81, N-[(2-bromo-4-methylphenyl)(phenyl)methyl]-2-(2-methyl-1H-1,3-benzodiazol-5-yl)acetamide], the melting point (commonly the temperature of the solid-liquid transition) was 138 °C. Further, the IC50 (in general, the concentration that inhibits the measured activity by half) on human RORγt was 10 to 100 nM. Further, the IC50 in series [1] lay within 100 to 1000 nM. Also, the IC50 in series [2] was 10 to 100 nM.
As to `CCSc1nc2cc(CC(=O)NC(c3ccccc3)c3ccc(C)cc3Br)ccc2[nH]1` (stereo not shown) [Cpd. 92, N-[(2-bromo-4-methylphenyl)(phenyl)methyl]-2-[2-(ethylsulfanyl)-1H-1,3-benzodiazol-5-yl]acetamide], the values for the IC50 (at human RORγt; in series [1]; in series [2]) were 10 to 100 nM, 100 to 1000 nM and 100 to 1000 nM, respectively.
With `Cc1ccc(C(NC(=O)Cc2ccc3[nH]cc(CCS(C)(=O)=O)c3c2)c2ccc(C)o2)c(N2CCCCC2)c1` (stereo not shown) [Cpd. 98, 2-[3-(2-methanesulfonylethyl)-1H-indol-5-yl]-N-{[4-methyl-2-(piperidin-1-yl)phenyl](5-methylfuran-2-yl)methyl}acetamide], the IC50 on human RORγt was 10 to 100 nM; in series [1] it was under 100 nM; in series [2], 10 to 100 nM.
`Cc1ccc(C(NC(=O)Cc2ccc3c(ccn3C(=O)C3CCOCC3)c2)c2ccc(C)o2)c(N2CCCCC2)c1` (stereo not shown) [Cpd. 118, N-{[4-methyl-2-(piperidin-1-yl)phenyl](5-methylfuran-2-yl)methyl}-2-[1-(oxane-4-carbonyl)-1H-indol-5-yl]acetamide] returned a melting point of 96 °C. Besides, the half-maximal inhibitory concentration (IC50) on human RORγt lay in the range of 10 to 100 nM. Moreover, the IC50 in series [1] was under 100 nM. In series [2], this compound displayed a concentration for half-maximal inhibition (IC50) of 100 to 1000 nM.
As to `Cc1ccc(C(NC(=O)C2(c3ccc4c(c3)OCS(=O)(=O)N4)CC2)c2ccc(C)o2)c(C)c1` (stereo not shown) [Cpd. 124, N-[(2,4-dimethylphenyl)(5-methylfuran-2-yl)methyl]-1-(2,2-dioxo-1,3-dihydro-4,2,1-benzoxathiazin-6-yl)cyclopropane-1-carboxamide], the values for the IC50 (at human RORγt; in series [1]; in series [2]) were 10 to 100 nM, 100 to 1000 nM and under 10 nM, respectively.
The corresponding values for `Cc1ccc(C(NC(=O)C2(c3ccc4c(c3)C(=O)C(=O)N4)CC2)c2ccc(C)o2)c(C)c1` (stereo not shown) [Cpd. 125, N-[(2,4-dimethylphenyl)(5-methylfuran-2-yl)methyl]-1-(2,3-dioxo-2,3-dihydro-1H-indol-5-yl)cyclopropane-1-carboxamide] are 10 to 100 nM, under 100 nM and under 10 nM.
Consider `CC(=O)N1Cc2ccc(C3(C(=O)NC(c4ccc(C)o4)c4ccc(C)cc4C)CC3)cc2C1` (stereo not shown) [Cpd. 127, 1-(2-acetyl-2,3-dihydro-1H-isoindol-5-yl)-N-[(2,4-dimethylphenyl)(5-methylfuran-2-yl)methyl]cyclopropane-1-carboxamide], for which the concentration for half-maximal inhibition (IC50) at human RORγt was 10 to 100 nM; in series [1], under 100 nM; in series [2], under 10 nM.
For `Cc1ccc(C(NC(=O)C2(c3ccc4c(c3)CC(=O)N4C)CC2)c2ccc(C)o2)c(C)c1` (stereo not shown) [Cpd. 130, N-[(2,4-dimethylphenyl)(5-methylfuran-2-yl)methyl]-1-(1-methyl-2-oxo-2,3-dihydro-1H-indol-5-yl)cyclopropane-1-carboxamide], the IC50 at human RORγt is 10 to 100 nM; in series [1], under 100 nM; in series [2] it was under 10 nM.
`CC(=O)Nc1nc(C)c(S(=O)(=O)Nc2ccc(C(O)(C(F)(F)F)C(F)(F)F)cc2)s1` [SR1001]: the “efficacy in multiple sclerosis model” value with multiple sclerosis model is reported as “efficacious”.
Consider `Cc1ccc([C@@H](NC(=O)Cc2ccc3oc([C@@H](O)c4c(C)noc4C)cc3c2)c2ccccc2)c(C)c1` [TMP778], for which the “efficacy in psoriasis model” value with psoriasis model is “efficacious”.
For the compound `CCS(=O)(=O)c1ccc(CNC(=O)c2cnc3c(c2)CN(C[C@H]2CC[C@H](C(F)(F)F)CC2)[C@H]3C(C)C)nc1` [VTP-43742], in series [3] (350 mg dose group), the “reduction in the Psoriasis Area Severity Index (PASI) score relative to placebo” value is on record as 24%. Besides, the “placebo-adjusted PASI score reduction” value in series [3] (700 mg dose group) is recorded as 30%. For the same compound, in series [3] (relative to placebo), the “plasma IL-17 levels” value is given as “reduced”.
